Measured values from ChEMBL document CHEMBL4000191, “Antileishmanial evaluation of clubbed bis(indolyl)-pyridine derivatives: One-pot synthesis, in vitro biological evaluations and in silico ADME prediction” (Bioorg Med Chem Lett, 2017).
pIC50: −log10 of the molar value. ≈ marks a conversion by molar mass, not a printed value.

Columns and labels:
Staphylococcus aureus = assay: Antibacterial activity against Staphylococcus aureus NCIM 2901 by standard agar method; assay type: functional
Pseudomonas aeruginosa = assay: Antibacterial activity against Pseudomonas aeruginosa NCIM 2036 by standard agar method; assay type: functional
Leishmania donovani [1] = assay: Antileishmanial activity against Leishmania donovani NHOM/IN/80/DD8 promastigotes after 72 hrs by MTT assay; assay type: functional; conditions: NHOM/IN/80/DD8, 72 h
Bacillus subtilis = assay: Antibacterial activity against Bacillus subtilis NCIM 2063 by standard agar method; assay type: functional
Escherichia coli = assay: Antibacterial activity against Escherichia coli NCIM 2256 by standard agar method; assay type: functional
HeLa = assay: Cytotoxic activity against human HeLa cells up to 300 ug/mL after 72 hrs by MTT assay; assay type: cell-based
Leishmania chagasi = assay: Antileishmanial activity against Leishmania donovani chagasi MHOM/BR/74/PP75 promastigotes after 72 hrs by phase contrast microscopic method; assay type: functional; conditions: MHOM/BR/74/PP75, 72 h
Leishmania donovani [2] = assay: Antileishmanial activity against Leishmania donovani; assay type: functional

| SMILES | MIC (Staphylococcus aureus) [µg/mL] | MIC (Pseudomonas aeruginosa) [µg/mL] | MIC (Bacillus subtilis) [µg/mL] | MIC (Escherichia coli) [µg/mL] | pIC50 (Leishmania chagasi) | pIC50 (Leishmania donovani [2]) | pIC50 (Leishmania donovani [1]) | Activity (HeLa) |
| --- | --- | --- | --- | --- | --- | --- | --- | --- |
| O=C(O)c1ccccc1-c1cc(-c2c[nH]c3ccccc23)nc(-c2c[nH]c3ccccc23)c1 | 129 (≈ 300 µM) | 122 (≈ 284 µM) | 70.4 (≈ 164 µM) | 71.5 (≈ 166 µM) | – | – | 3.93 | – |
| COc1cc(-c2cc(-c3c[nH]c4ccccc34)nc(-c3c[nH]c4ccccc34)c2)cc(OC)c1OC | 179 (≈ 377 µM) | 197 (≈ 414 µM) | 79.9 (≈ 168 µM) | 192 (≈ 403 µM) | – | – | 3.87 | – |
| COc1ccc(-c2cc(-c3c[nH]c4ccccc34)nc(-c3c[nH]c4ccccc34)c2)cc1OC | 194 (≈ 436 µM) | 180 (≈ 404 µM) | 55.4 (≈ 124 µM) | 191 (≈ 428 µM) | – | – | 3.72 | – |
| COC(=O)[C@@H]1C[C@@]23CCCN4CC[C@@]5(c6ccccc6N(C(=O)OC)[C@]15CC2)[C@H]43 | – | – | – | – | 4.22 | – | – | – |
| COc1ccc(OC)c(-c2cc(-c3c[nH]c4ccccc34)nc(-c3c[nH]c4ccccc34)c2)c1 | 158 (≈ 356 µM) | 182 (≈ 408 µM) | 79.5 (≈ 178 µM) | 133 (≈ 299 µM) | – | – | 3.59 | – |
| COc1ccc(-c2cc(-c3c[nH]c4ccccc34)nc(-c3c[nH]c4ccccc34)c2)c(OC)c1 | 123 (≈ 276 µM) | 188 (≈ 423 µM) | 88.7 (≈ 199 µM) | 52.2 (≈ 117 µM) | – | – | 3.22 | – |
| CC1(C)S[C@@H]2[C@H](NC(=O)[C@H](N)c3ccccc3)C(=O)N2[C@H]1C(=O)O [AMPICILLIN] | 250 (≈ 715 µM) | 100 (≈ 286 µM) | 250 (≈ 715 µM) | 100 (≈ 286 µM) | – | – | – | – |
| O=C(O)c1cn(C2CC2)c2cc(N3CCNCC3)c(F)cc2c1=O [CIPROFLOXACIN] | – | 50 (≈ 151 µM) | – | 25 (≈ 75.4 µM) | – | – | – | – |
| C[n+]1c2ccccc2cc2[n-]c3ccccc3c21 [CRYPTOLEPINE] | – | – | – | – | – | 5.80 | – | – |

Continued, in another order:

| MIC (Staphylococcus aureus) [µg/mL] | MIC (Pseudomonas aeruginosa) [µg/mL] | MIC (Bacillus subtilis) [µg/mL] | MIC (Escherichia coli) [µg/mL] | pIC50 (Leishmania chagasi) | pIC50 (Leishmania donovani [2]) | SMILES | pIC50 (Leishmania donovani [1]) | Activity (HeLa) |
| --- | --- | --- | --- | --- | --- | --- | --- | --- |
| 183 (≈ 435 µM) | 115 (≈ 275 µM) | 77.2 (≈ 184 µM) | 90.5 (≈ 216 µM) | – | – | Clc1ccc(-c2cc(-c3c[nH]c4ccccc34)nc(-c3c[nH]c4ccccc34)c2)cc1 | 3.78 | – |
| 158 (≈ 410 µM) | 149 (≈ 387 µM) | 89.6 (≈ 232 µM) | 55.4 (≈ 144 µM) | – | – | c1ccc(-c2cc(-c3c[nH]c4ccccc34)nc(-c3c[nH]c4ccccc34)c2)cc1 | 3.85 | – |
| 165 (≈ 398 µM) | 120 (≈ 288 µM) | 81.5 (≈ 196 µM) | 46.6 (≈ 112 µM) | – | – | COc1ccc(-c2cc(-c3c[nH]c4ccccc34)nc(-c3c[nH]c4ccccc34)c2)cc1 | 4.00 | Non-Toxic |
| 191 (≈ 458 µM) | 224 (≈ 535 µM) | 121 (≈ 291 µM) | 158 (≈ 379 µM) | – | – | Oc1ccc(-c2cc(-c3c[nH]c4ccccc34)nc(-c3c[nH]c4ccccc34)c2)cc1O | 3.54 | – |
| 178 (≈ 391 µM) | 175 (≈ 386 µM) | 96.5 (≈ 212 µM) | 87.5 (≈ 193 µM) | – | – | Clc1cccc(Cl)c1-c1cc(-c2c[nH]c3ccccc23)nc(-c2c[nH]c3ccccc23)c1 | 3.99 | – |
| 229 (≈ 534 µM) | 149 (≈ 349 µM) | 103 (≈ 240 µM) | 95.9 (≈ 224 µM) | – | – | CN(C)c1ccc(-c2cc(-c3c[nH]c4ccccc34)nc(-c3c[nH]c4ccccc34)c2)cc1 | 3.95 | – |
| 166 (≈ 394 µM) | 150 (≈ 358 µM) | 64.8 (≈ 154 µM) | 41.4 (≈ 98.5 µM) | – | – | Clc1ccccc1-c1cc(-c2c[nH]c3ccccc23)nc(-c2c[nH]c3ccccc23)c1 | 3.91 | Non-Toxic |
| 221 (≈ 511 µM) | 165 (≈ 383 µM) | 95.7 (≈ 222 µM) | 129 (≈ 300 µM) | – | – | COc1cc(-c2cc(-c3c[nH]c4ccccc34)nc(-c3c[nH]c4ccccc34)c2)ccc1O | 3.77 | – |
